pEC50: −log10 of the molar value. Entries after “also recorded” stand apart in the source; their conditions may differ.

The conditions of data set [1]: dog, in vivo. As for the experimental part:
The Phase 1 study will be a 3+3 dose escalation to evaluate the safety, tolerability, PK, and maximum tolerated dose of compound (I-1) after multiple dosing in patients with CRPC. The initial dose will be at 0.6 mg, and intensive safety, PK and PD monitoring will occur prior to each dose escalation. […] Approximately six dose levels will be explored. The PD assessment will be a NanoString assay that measures levels of HEXIM1 and CCR2 RNA in peripheral blood cells.

The test system of data set [2] is VCaP (AR-V7 positive) cells. The data set is described as follows: Cell growth inhibition in VCaP cells (Cell Titer-Glo, 96 hours). The format is cell-based. To be noted: for pEC50: Homo sapiens, VCaP; for inhibition of cell growth and viability / effect on growth and number of viable VCaP cells (in words): 96 hours; for effect on growth and number of viable VCaP cells (in words): single agent, 3 to 10,000 nM. Here is the method:
(§1) VCaP cells were grown under standard cell culture conditions in 10% fetal bovine serum (FBS). LNCaP cells were grown in charcoal stripped FBS supplemented with 10 nM DHT in a 3-dimensional cell spheroid culture system, which increases androgen-dependent growth. […] This concentration of enzalutamide (3000 nM) was chosen for the combination study because it matches the clinical steady state trough level of enzalutamide at the recommended dose of 160 mg QD after accounting for differences in protein binding between cell culture media and human plasma. Cell growth and number was measured by quantification of the total cellular ATP content (Cell Titer-Glo® Luminescent Cell Viability Assay) at the time of compound addition (T=0), and after 96 hours of treatment.
(§2) Referring again to FIG. 1, the Y-axis is normalized CellTiter-Glo values where the bottom of the assay (no ATP)=0% and the DMSO-treated cells=100% at the end of the assay. T=0 represents the CellTiter-Glo signal recorded at the time of compound addition. […] One representative of three independent experiments is shown.

Data set [3] concerns LNCaP (AR-V7 negative) cells. The data set is described as follows: Cell growth inhibition in LNCaP cells, 3-dimensional spheroid culture (Cell Titer-Glo, 96 hours). The data set is classed as cell-based. As for the experimental part:
as §1, §2

Data set [4] in a line: Protein binding difference between cell culture media and human plasma. The data set is classed as in vitro ADME. As to conditions: cell culture media vs human plasma.
For data set [5] the following is noted: patients, enzalutamide; cited from earlier work.
Where [6] appears, read: compound (I-1) alone at its projected Cmax.
[7] abbreviates: compound (I-1) alone at its projected Cmin.
The mark [8] stands for this setting: compound (I-1) at its projected Cmax with 3,000 nM enzalutamide.
The mark [9] stands for this setting: compound (I-1) at its projected Cmin with 3,000 nM enzalutamide.

By pEC50 is commonly meant the negative decadic logarithm of the EC50, by convention in mol/L. `Cc1noc(C)c1-c1cc(C(O)(c2ccccn2)c2ccccn2)c2nc(C3CC3)[nH]c2c1` [compound (I-1), (2-cyclopropyl-6-(3,5-dimethylisoxazol-4-yl)-1H-benzo[d]imidazol-4-yl)di(pyridin-2-yl)methanol]: the dose/toxicity relationship result in data set [1] is “steep dose/toxicity relationship”. In addition, the pEC50 is 6.89 in data set [2] (compound (I-1) alone) and 7.12 in data set [2] (in the presence of 3,000 nM enzalutamide). Further, the “inhibition of cell growth and viability” value came to 40% in data set [2] (setting [6]); 0% in data set [2] (setting [7]); 65% in data set [2] (setting [8]); 25% in data set [2] (setting [9]); 45% in data set [3] (setting [6]); 20% in data set [3] (setting [7]). In addition, the results for the “inhibition of cell growth and viability” value in data set [3] (setting [8]) and in data set [3] (setting [9]) were 65% and 45%, respectively. The “effect on growth and number of viable VCaP cells (in words)” value in data set [2] is recorded as “potently reduced the growth of VCaP cells; also recorded: decreased the number of viable cells to below that recorded at the beginning of the assay (T=0)”. For the same compound, the “difference in protein binding between cell culture media and human plasma” value in data set [4] is given as 5.7 ×.
Take `CNC(=O)c1ccc(N2C(=S)N(c3ccc(C#N)c(C(F)(F)F)c3)C(=O)C2(C)C)cc1F` [enzalutamide]: in data set [5], the “OS HR” value is on record as 0.69 and the “increase in OS” value is 3.4 month. The “effect on growth and number of viable VCaP cells (in words)” value in data set [2] is listed as “reduced the growth of VCaP cells but the magnitude of growth suppression was significantly less than that observed for compound (I-1)”.

The values are drawn from patent US20180153867A1, “TREATMENT OF PROSTATE CANCER BY CONCOMITANT ADMINISTRATION OF A BROMODOMAIN INHIBITOR AND A SECOND AGENT” (Gilead Sciences, Inc., priority 2016, published 2018).
